39 molecules from patent US9895330B2, “IDO inhibitors” (BRISTOL-MYERS SQUIBB COMPANY, priority 2013, dated 2018) can be followed below.

T1 sequence (P14902 whole entry): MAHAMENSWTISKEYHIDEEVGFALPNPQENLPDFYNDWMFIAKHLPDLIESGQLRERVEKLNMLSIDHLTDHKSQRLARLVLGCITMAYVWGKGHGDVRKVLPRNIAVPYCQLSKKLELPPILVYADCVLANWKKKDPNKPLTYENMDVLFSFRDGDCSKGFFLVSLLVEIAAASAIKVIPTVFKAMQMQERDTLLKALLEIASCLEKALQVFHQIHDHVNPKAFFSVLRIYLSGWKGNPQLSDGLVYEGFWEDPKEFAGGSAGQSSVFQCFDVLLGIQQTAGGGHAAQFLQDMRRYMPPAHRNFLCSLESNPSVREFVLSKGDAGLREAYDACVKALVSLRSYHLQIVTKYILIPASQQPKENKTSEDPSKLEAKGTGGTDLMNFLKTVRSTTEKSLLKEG

The experiment addresses T1, IDO (IFNγ-treated Hela cells) (Homo sapiens, UniProt P14902).
T1 construct: endogenous in cells; host or cells: Hela cells treated with IFNγ (10 ng/ml)
As to the kind of experiment: IDO Kynurenine Assay with Hela Cells. It counts as cell-based. As to conditions: IFNγ 10 ng/ml, 20 hours incubation, kynurenine absorbance at 490 nm, read-out: Hela Cells LLE_IDO_ABS_DR (IC50). The protocol: IDO Kynurenine Assay with Hela Cells
Hela cells were seeded at 30,000 cells per well in 40 ul RPMI/phenol red free media contains 10% FBS in a 384-well black wall clear bottom tissue culture plate (Matrix Technologies LLC). 270 nl of certain concentration of compound was then added to each well using ECHO liquid handling systems. 40 ul of IFNγ (R&D, 285-IF-100) at final concentration of 10 ng/ml was then added to column 2-24 with media to column 1 as control. The cells were incubated for 20 hours in 37° C. incubator with 5% CO2.
The compound treatments were stopped by adding trichloroacetic acid (Sigma-Aldrich) to a final concentration at 0.2%. The cell plate was further incubated at 50° C. for 30 minute. The equal volume supernatant (20 uL) and 0.2% (w/v) Ehrlich reagent (4-dimethylaminobenzaldehyde, Sigma-Aldrich) in glacial acetic acid were mixed in a new clear bottom 384-well plate. This plate was then incubated at room temperature for 30 minute. The absorbance at 490 nm was measured on Envision plate reader.
Compound IC50 values were calculated using the counts of no IFNγ control as one hundred percent inhibition, and counts of no compound but DMSO treatment as zero percent inhibition.
As a reminder, the IC50 is the concentration that inhibits the measured activity by half. Regarding `CC(C)CN(c1ccc(-c2ccccc2-c2nnn[nH]2)cc1NC(=O)Cc1ccccc1F)C1CCCCC1` [Example 9, N-(4-(cyclohexyl(isobutyl)amino)-2′-(1H-tetrazol-5-yl)biphenyl-3-yl)-2-(2-fluorophenyl)acetamide], the IC50 turned out to be 20 nM.
Under `CC(C)CN(CC(C)C)c1ccc(-c2ccccc2-c2nnn[nH]2)cc1NC(=O)CC#N` [Example 23] stands 280 nM.
Consider `Cc1ccc(OCC(=O)Nc2cc(-c3ccccc3-c3nnn[nH]3)ccc2N(CC(C)C)CC(C)C)cc1` [Example 40], for which the IC50 is 160 nM.
Take `Cc1ccc(CC(=O)Nc2cc(-c3ccccc3-c3nnn[nH]3)ccc2N2CCC(F)(F)C2)cc1` [Example 75]: the 50% inhibitory concentration (IC50) came to 1810 nM.
The value for `CC(C)CN(CC(C)C)c1ccc(-c2ccccc2-c2nnn[nH]2)cc1NC(=O)Cc1ccc(C(F)(F)F)cc1` [Example 29] was 60 nM; that for `Cc1ccc(CC(=O)Nc2cc(-c3ccccc3-c3nnn[nH]3)ccc2-n2cccn2)cc1` [Example 46, 2-(4-methylphenyl)-N-[2-(1H-pyrazol-1-yl)-5-[2-(1H-1,2,3,4-tetrazol-5-yl)phenyl]phenyl]acetamide] was 230 nM.
The value for `CC(C)CN(CC(C)C)c1ccc(-c2ccccc2-c2nnn[nH]2)cc1NC(=O)CS(=O)(=O)c1ccccc1` [Example 32] was 4010 nM; that for `CC(C)CN(CC(C)C)c1ccc(-c2ccccc2-c2nnn[nH]2)cc1NC(=O)Oc1ccc(OCc2ccccc2)cc1` [Example 53, 4-(benzyloxy)phenyl (4-(diisobutylamino)-2′-(1H-tetrazol-5-yl)-[1,1′-biphenyl]-3-yl)carbamate] was 3250 nM; that for `CC(C)CN(Cc1ccccc1)c1ccc(-c2ccccc2-c2nnn[nH]2)cc1NC(=O)Cc1ccccc1C(F)(F)F` [Example 3, N,N-(4-(Benzyl(isobutyl)amino)-2′-(1H-tetrazol-5-yl)biphenyl-3-yl)-2-(2-(trifluoromethyl)phenyl)acetamide] was 20 nM.
Regarding `CC(C)CN(CC(C)C)c1ccc(-c2ccccc2-c2nnn[nH]2)cc1NC(=O)CN1CCOCC1` [Example 38], the half-maximal inhibitory concentration (IC50) turned out to be 2520 nM.
The value for `CC(C)CN(c1ccc(-c2ccccc2C(=O)O)cc1NC(=O)Cc1ccccc1C(F)(F)F)C1CCCCC1` [Example 8, 4′-(cyclohexyl(isobutyl)amino)-3′-(2-(2-(trifluoromethyl)phenyl)acetamido)biphenyl-2-carboxylic acid] was 940 nM.
In the case of `O=C(Cc1ccccc1C(F)(F)F)Nc1cc(-c2ccccc2-c2nnn[nH]2)ccc1-n1cccn1` [Example 76], the IC50 worked out at 280 nM.
Turning to `Cc1ccc(CC(=O)Nc2cc(-c3ccccc3-c3nnn[nH]3)ccc2N(CC(C)C)CC(C)C)c(F)c1` [Example 20, N-(4-(diisobutylamino)-2′-(1H-tetrazol-5-yl)biphenyl-3-yl)-2-(2-fluoro-4-methylphenyl)acetamide], the IC50 came out at 9.11 nM.
Under `C[C@@H]1C[C@H](C)CN(c2ccc(-c3ccccc3-c3nnn[nH]3)cc2NC(=O)Cc2ccc(F)cc2)C1` [Example 22, N-(4-(cis-3,5-Dimethylpiperidin-1-yl)-2′-(1H-tetrazol-5-yl)-[1,1′-biphenyl]-3-yl)-2-(4-fluorophenyl)acetamide] stands 1190 nM; under `CC(C)CN(CC(C)C)c1ccc(-c2ccccc2-c2nnn[nH]2)cc1NC(=O)CC(F)(F)F` [Example 35], 270 nM; under `CC(C)CN(Cc1ccccc1)c1ccc(-c2ccccc2-c2nnn[nH]2)cc1NC(=O)CC(C)(C)C` [Example 47, N-(4-(Benzyl(isobutyl)amino)-2′-(2H-tetrazol-5-yl)biphenyl-3-yl)-3,3-dimethylbutanamide], 470 nM.
Under `Cc1ccc(CC(=O)Nc2cc(-c3cc(F)ccc3C(=O)O)ccc2N(CC(C)C)CC(C)C)cc1` [Example 1, 4′-(Diisobutylamino)-5-fluoro-3′-(2-p-tolylacetamido)biphenyl-2-carboxylic acid] stands 10 nM; under `Cc1ccc(CC(=O)Nc2cc(-c3ccccc3C(=O)O)ccc2N(CC(C)C)CC(C)C)cc1` [Example 4, 4′-(diisobutylamino)-3′-(2-p-tolylacetamido) biphenyl-2-carboxylic acid], 10 nM.
Under `Cc1nc(CC(=O)Nc2cc(-c3ccccc3-c3nnn[nH]3)ccc2N(CC(C)C)CC(C)C)cs1` [Example 36] stands 400 nM.
For `CC(C)(C)CC(=O)Nc1cc(-c2ccccc2-c2nnn[nH]2)ccc1-n1cccn1` [Example 78], the IC50 stood at 4440 nM.
Under `COc1ccc(CC(=O)Nc2cc(-c3ccccc3-c3nnn[nH]3)ccc2N(CC(C)C)CC(C)C)c(C(F)(F)F)c1` [Example 18, N-(4-(diisobutylamino)-2′-(1H-tetrazol-5-yl)biphenyl-3-yl)-2-(4-methoxy-2-(trifluoromethyl)phenyl)acetamide] stands 40 nM.
Consider `CC(C)CN(c1ccc(-c2ccccc2-c2nnn[nH]2)cc1NC(=O)Cc1ccccc1C(F)(F)F)C1CCCCC1` [Example 7, N-(4-(cyclohexyl(isobutyl)amino)-2′-(1H-tetrazol-5-yl)biphenyl-3-yl)-2-(2-(trifluoromethyl)phenyl)acetamide], for which the IC50 turned out to be 130 nM.
For `CC(C)CN(CC(C)C)c1ccc(-c2ccccc2-c2nnn[nH]2)cc1NC(=O)Cc1ccccc1F` [Example 19, N-(4-(diisobutylamino)-2′-(1H-tetrazol-5-yl)biphenyl-3-yl)-2-(2-fluorophenyl)acetamide], the IC50 worked out at 20 nM.
Turning to `CC(C)CN(Cc1ccccc1)c1ccc(-c2ccccc2-c2nnn[nH]2)cc1NC(=O)[C@H](O)c1ccccc1` [Example 48, (R)—N-(4-(Benzyl(isobutyl)amino)-2′-(1H-tetrazol-5-yl)biphenyl-3-yl)-2-hydroxy-2-phenylacetamide], the IC50 is 1610 nM.
With `CC(C)CN(CC(C)C)c1ccc(-c2ccccc2-c2nnn[nH]2)cc1NC(=O)Cc1ccc(O)cc1` [Example 28], the half-inhibitory concentration (IC50) was 90 nM.
As for `CC(C)CN(CC(C)C)c1ccc(-c2ccccc2-c2nnn[nH]2)cc1NC(=O)Cc1ccc(Cl)cc1` [Example 17, 2-(4-chlorophenyl)-N-(4-(diisobutylamino)-2′-(1H-tetrazol-5-yl)biphenyl-3-yl)acetamide], the IC50 amounted to 4.42 nM.
As to `CC(C)CN(CC(C)C)c1ccc(-c2ccccc2-c2nnn[nH]2)cc1NC(=O)Cc1cccc(F)c1` [Example 16, N-(4-(diisobutylamino)-2′-(1H-tetrazol-5-yl)biphenyl-3-yl)-2-(3-fluorophenyl)acetamide], the half-maximal inhibitory concentration (IC50) is 8.9 nM.
Under `CC(C)CN(CC(C)C)c1ccc(-c2ccccc2-c2nnn[nH]2)cc1NC(=O)Cc1ccc(C#N)cc1` [Example 43] stands 5.09 nM.
Under `CC(C)CN(CC(C)C)c1ccc(-c2ccccc2-c2nnn[nH]2)cc1NC(=O)Cc1ccccc1C(F)(F)F` [Example 26] stands 50 nM.
On to `CC(C)CN(CC(C)C)c1ccc(-c2ccccc2-c2nnn[nH]2)cc1NC(=O)Cc1ccc2c(c1)OCO2` [Example 14, 2-(benzo[d][1,3]dioxol-5-yl)-N-(4-(diisobutylamino)-2′-(1H-tetrazol-5-yl)biphenyl-3-yl)acetamide], for which the IC50 came to 20 nM.
The value for `O=C(Nc1cc(-c2ccccc2-c2nnn[nH]2)ccc1N1CC2CC1CN2Cc1ccccc1)[C@H](O)c1ccccc1` (stereo partly drawn) [Example 83] was 8920 nM.
The value for `CC(C)CN(CC(C)C)c1ccc(-c2ccccc2-c2nnn[nH]2)cc1NC(=O)Oc1ccc2c(c1)OCO2` [Example 51, benzo[d][1,3]dioxol-5-yl (4-(diisobutylamino)-2′-(1H-tetrazol-5-yl)-[1,1′-biphenyl]-3-yl) carbamate] was 3910 nM.
Under `COc1ccc(OC(=O)Nc2cc(-c3ccccc3-c3nnn[nH]3)ccc2N(CC(C)C)CC(C)C)cc1` [Example 50, 4-methoxyphenyl (4-(diisobutylamino)-2′-(1H-tetrazol-5-yl)-[1,1′-biphenyl]-3-yl)carbamate] stands 120 nM; under `CC(C)CN(Cc1ccccc1)c1ccc(-c2ccccc2-c2nnn[nH]2)cc1NC(=O)Cc1ccc(C#N)cc1` [Example 54], 10 nM; under `CC(C)CN(CC(C)C)c1ccc(-c2ccccc2-c2nnn[nH]2)cc1NC(=O)Cc1cncc(Br)c1` [Example 44], 80 nM.
With `CC(C)CN(c1ccc(-c2cc(F)ccc2C(=O)O)cc1NC(=O)Cc1ccccc1F)C1CCCCC1` [Example 6, 4′-(cyclohexyl(isobutyl)amino)-5-fluoro-3′-(2-(2-fluorophenyl)acetamido) biphenyl-2-carboxylic acid], the IC50 was determined as 50 nM.
The value for `CC(C)CN(CC(C)C)c1ccc(-c2ccccc2-c2nnn[nH]2)cc1NC(=O)Oc1ccc(Cl)cc1` [Example 45, 4-Chlorophenyl (4-(diisobutylamino)-2′-(1H-tetrazol-5-yl)-[1,1′-biphenyl]-3-yl)carbamate] was 3900 nM.
The value for `CC(C)CN(CC(C)C)c1ccc(-c2ccccc2-c2nnn[nH]2)cc1NC(=O)CC1CC1` [Example 33] was 500 nM.
The value for `CC(C)CN(CC(C)C)c1ccc(-c2ccccc2-c2nnn[nH]2)cc1NC(=O)Cc1ccc(C(C)C)cc1` [Example 13, N-(4-(diisobutylamino)-2′-(1H-tetrazol-5-yl)biphenyl-3-yl)-2-(4-isopropylphenyl) acetamide] was 1330 nM.
